Laboratory results: patent US10795976B2, “Program randomization for cyber-attack resilient control in programmable logic controllers” (Siemens Aktiengesellschaft, priority 2016, dated 2020)
Counter-ions that a name gives are not always drawn. Like-named read-outs stand apart in the source and are kept apart here.

Columns and labels:
C57BL/6JOlaHsd mice [1] = type: in vivo
[2] = system: Tourette syndrome (TS) patients; details: patient reports; cited from earlier work
[3] = system: CB2 receptor knockout mice; type: in vivo
C57BL/6JOlaHsd mice [4] = experiment: Ear scratch response (ESR) / grooming, urge-like behavior; type: in vivo
Method: 1. CB2 receptor selective ligands or CB2/SERM ligands were injected intraperitoneally or orally at doses of 0.001 to 100 mg/kg one to two hours before the injection of DOI. In order to test the effect of DOI on head twitch responses, ear scratch and grooming responses, DOI was intraperitoneally injected at a dose of 1 mg/kg.
ESR behavior is a measure for urge-like behavior and often preceded HTRs. The ESR is a rapid scratching movement of the head, neck, ears, or other body surfaces by either hindlimbs. The number of ESRs was manually counted. Every ESR was also counted as a grooming. In some experiments, each ESR was considered as a separate episode if the animal moved. In some experiments, each ESR was considered as a separate episode for every ESR.
Grooming behavior is a measure for anxiety. Grooming behavior in mice is characterized by licking its fur, groom with the forepaws, or scratch with any limb. Often the mouse will mix all of these grooming behaviors. The number of grooms was manually counted. In some experiments, each grooming behavior was considered as a separate episode if the animal moved its hindlimbs. In some experiments, each grooming behavior was considered as a separate episode for every grooming behavior.

mice = details: 5 mg/kg during postnatal days 5-13; measured at the age of 12 weeks; cited from earlier work
C57BL/6JOlaHsd mice [5] = experiment: Marble burying test (MBT), compulsive behavior; type: in vivo; details: one hour after a single injection, age 6 weeks
Method: Mice were habituated to the test room for 1 h. A mouse was injected with DOI as above and then placed in the experimental cage (white plastic 36×24.5×14.5 cm) filled with 5 cm sawdust for 5 min, in the absence of marbles. The mouse was taken out and twenty black glass were arranged 4 by 5 with 7 cm apart and 1 cm apart from the wells of the cage. Each mouse was tested for its marble burying activity for 30 min. Activity was videotaped with EthoVision and buried marbles were counted manually at the end of the experiment (after 30 min). A marble considered as buried when it was sawdust-covered by two third of its volume.
Marbles that were moved were also counted.
With a view to study the effect of the JTE-907 and M1 compositions on repetitive behavior, C57BL/6JOlaHsd mice were intraperitoneally injected at age 6 weeks with a single dose of JTE-907 at 0.2-50 mg/kg, M1 at 0.2-50 mg/kg or equivalent vehicle. The number of buried marbles in the burying marble test by each mouse was recorded.

Sabra mice = experiment: Ultrasonic vocals after postnatal SR141716A (vocal tic-like behavior); type: in vivo
osteoclastogenesis = details: Schuehly et al. 2011; cited from earlier work
GPR55 = GPR55 (Homo sapiens, UniProt Q9Y2T6); details: Schuehly et al. 2011; cited from earlier work
cyclooxygenase 2 (COX-2) = target: T1, cyclooxygenase 2 (COX-2) (Homo sapiens, UniProt P35354); details: Schuehly et al. 2011; cited from earlier work
T1 sequence (P35354 18-604): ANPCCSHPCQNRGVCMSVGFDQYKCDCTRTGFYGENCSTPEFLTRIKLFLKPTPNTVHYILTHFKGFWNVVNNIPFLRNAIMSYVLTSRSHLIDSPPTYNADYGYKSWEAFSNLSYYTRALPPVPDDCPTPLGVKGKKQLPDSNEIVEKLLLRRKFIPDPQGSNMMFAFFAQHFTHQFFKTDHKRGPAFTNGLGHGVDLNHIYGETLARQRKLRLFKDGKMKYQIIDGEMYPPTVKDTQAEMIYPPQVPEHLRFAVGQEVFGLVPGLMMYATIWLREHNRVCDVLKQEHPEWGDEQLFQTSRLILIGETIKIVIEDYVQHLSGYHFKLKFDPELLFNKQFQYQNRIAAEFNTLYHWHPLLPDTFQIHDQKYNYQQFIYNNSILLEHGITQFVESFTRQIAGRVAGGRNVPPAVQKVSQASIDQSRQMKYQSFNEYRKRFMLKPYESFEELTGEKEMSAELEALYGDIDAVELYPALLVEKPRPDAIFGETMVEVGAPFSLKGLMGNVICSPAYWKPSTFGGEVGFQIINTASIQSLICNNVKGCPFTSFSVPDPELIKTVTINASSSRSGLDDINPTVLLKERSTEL

[6] = 10 mg/kg i.p. single dose, one hour before DOI 1 mg/kg i.p., age 3 weeks
[7] = model inducer, 1 mg/kg i.p., age three weeks up to 21 weeks
[8] = 0.2 mg/kg i.p. single dose, one hour before DOI 1 mg/kg i.p., age 3 weeks
[9] = 5 mg/kg i.p. single dose, one hour before DOI 1 mg/kg i.p., age 3 weeks
[10] = 1-20 mg/kg i.p., no DOI, age 6 weeks

Chain of GPR55 (Q9Y2T6 whole entry, species assumed): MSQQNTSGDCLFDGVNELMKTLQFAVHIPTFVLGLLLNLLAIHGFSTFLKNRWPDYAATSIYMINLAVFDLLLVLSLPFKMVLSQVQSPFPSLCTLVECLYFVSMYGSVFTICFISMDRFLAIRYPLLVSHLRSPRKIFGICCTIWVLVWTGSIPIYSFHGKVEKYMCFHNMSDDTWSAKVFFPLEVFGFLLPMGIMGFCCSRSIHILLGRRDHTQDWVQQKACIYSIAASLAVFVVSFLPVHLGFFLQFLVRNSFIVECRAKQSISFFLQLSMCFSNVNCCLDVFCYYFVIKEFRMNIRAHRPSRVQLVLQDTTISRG

O=C(c1ccc(OCCN2CCCCC2)cc1)c1c(-c2ccc(O)cc2)sc2cc(O)ccc12 [raloxifene]
DOI-induced HTR frequency (C57BL/6JOlaHsd mice [1]; [6]): reduced

CCCCCc1cc(O)c2c(c1)OC(C)(C)[C@@H]1CCC(C)=C[C@@H]21 [Δ^9-tetrahydrocannabinol]
tic frequency [2]: ameliorate

COc1cc(CC(C)N)c(OC)cc1I.Cl (single isomer, unassigned; (-)) [DOI, (−)-1-(2,5-dimethoxy-4-iodophenyl)-2-aminopropane hydrochloride]
head twitch response (C57BL/6JOlaHsd mice [1]; [7]): increased | HTR frequency in CB2 receptor knockout mice ([3]; model inducer, 1 mg/kg i.p., 6 weeks old): increased | ear scratch response and grooming behavior (C57BL/6JOlaHsd mice [4]; [7]): increased

C=C1CC/C=C(\C)CC[C@@H]2[C@@H]1CC2(C)C [BCP, beta-caryophyllene]
DOI-induced repetitive head twitches (C57BL/6JOlaHsd mice [1]; dose not stated): able to reduce

CCCCCCC(C)(C)c1cc(OC)c([C@@H]2C=C(CO)[C@@H]3C[C@H]2C3(C)C)c(OC)c1 [HU-308, [(1R,2R,5R)-2-[2,6-dimethoxy-4-(2-methyloctan-2-yl)phenyl]-7,7-dimethyl-4-bicyclo[3.1.1]hept-3-enyl] methanol]
DOI-induced HTR frequency (C57BL/6JOlaHsd mice [1]; [8]): reduced | repetitive behavior (HTR) with the drug alone (C57BL/6JOlaHsd mice [1]; 0.2 mg/kg i.p., saline instead of DOI, age 3 weeks): significantly increased | DOI-induced HTR frequency (C57BL/6JOlaHsd mice [1]; [9]): reduced | DOI-induced HTR frequency in CB2 receptor knockout mice ([3]; 5 mg/kg i.p., one hour before DOI 1 mg/kg i.p., male, age 6-21 weeks): significantly reduces | motor tics/head twitches in the open field test (mice): induce abnormal motor tics/head twitches

CCCCCOc1c(OC)ccc2cc(C(=O)NCc3ccc4c(c3)OCO4)c(=O)[nH]c12 [JTE-907, N-(benzo[1,3]dioxol-5-ylmethyl)-7-methoxy-2-oxo-8-pentyloxy-1,2-dihydroquinoline-3-carboxamide]
DOI-induced HTR frequency (C57BL/6JOlaHsd mice [1]; [8]): reduced | DOI-induced HTR frequency (C57BL/6JOlaHsd mice [1]; [9]): reduced | number of buried marbles (C57BL/6JOlaHsd mice [5]; 5 mg/kg i.p.): reduced

C=CCc1ccc(O)c(-c2ccc(OC)c(CC=C)c2)c1 [MH, 2-(4-Methoxy-3-prop-2-enylphenyl)-4-prop-2-enylphenol]
DOI-induced HTRs (C57BL/6JOlaHsd mice [1]; 1 mg/kg i.p. single dose, one hour before DOI 1 mg/kg i.p., age 3 weeks): reduced | DOI-induced HTRs (C57BL/6JOlaHsd mice [1]; 1 mg/kg i.p. single dose, one hour before DOI 1 mg/kg i.p., age 6 weeks): reduced | DOI-induced HTR frequency (C57BL/6JOlaHsd mice [1]; 1 mg/kg oral (gavage) in self-emulsifying oral formulation, two hours before DOI 1 mg/kg i.p., age 3 weeks): significantly reduced | DOI-induced HTR frequency (C57BL/6JOlaHsd mice [1]; [9]): reduced | DOI-induced HTRs (C57BL/6JOlaHsd mice [1]; 5 mg/kg i.p. single dose, one hour before DOI 1 mg/kg i.p., age 6 weeks): reduced | DOI-induced HTR frequency (C57BL/6JOlaHsd mice [1]; 5 mg/kg oral (gavage) in self-emulsifying oral formulation, two hours before DOI 1 mg/kg i.p., age 3 weeks): significantly reduced | HTR induced by the drug alone (C57BL/6JOlaHsd mice [1]; [10]): did not induce HTR at any dose | effect to reverse DOI-induced HTR, comparison of ages (C57BL/6JOlaHsd mice [1]; i.p., 20 min from DOI injection, age 3 weeks vs 6 weeks): higher at age 3 weeks than 6 weeks | effect on DOI-induced HTR frequency, 1 mg/kg compared with 5 mg/kg (C57BL/6JOlaHsd mice [1]; oral formulation, age 3 weeks): greater | urge-like response induced by the drug alone (C57BL/6JOlaHsd mice [4]; [10]): did not induce urge-like response at any dose | frequency of DOI-induced ESR behavior (urge-like behavior) (C57BL/6JOlaHsd mice [4]; i.p., one hour before DOI 1 mg/kg i.p., dose not given): reduced | vocal tic-like behavior (number of ultrasonic vocal events) (Sabra mice; SR141716A 5 mg/kg s.c. postnatal day 1-3, drug 5 mg/kg s.c. at age 13 days, one hour before recording): significantly reduces | number of buried marbles (C57BL/6JOlaHsd mice [5]; 10 mg/kg i.p.): reduced | osteoclastogenesis (osteoclastogenesis): potently inhibits | GPR55 activity (GPR55): not | COX-2 enzymatic activity (cyclooxygenase 2 (COX-2)): inhibits

Cc1c(C(=O)NN2CCCCC2)nn(-c2ccc(Cl)cc2Cl)c1-c1ccc(Cl)cc1 [SR141716A]
vocalization of mice pups vs control litter mates (Sabra mice; administered at the age of one to two days): higher level of vocalization and/or higher number of vocals

CCN(CC)CCOc1ccc(C(=C(Cl)c2ccccc2)c2ccccc2)cc1 [clomiphene citrate]
DOI-induced HTR frequency (C57BL/6JOlaHsd mice [1]; [6]): did not significantly reverse
